Assays:
[1] = target: T1, Integrin alpha-IIb/beta-3 (Homo sapiens) (UniProt P05106+P08514); test: Inhibition of Fibrinogen Receptor at 50 uM; format: protein-complex assay
[2] = target: T1, Integrin alpha-IIb/beta-3 (Homo sapiens); test: Percent inhibition of platelet aggregation at 20 uM; format: functional
[3] = target: T1, Integrin alpha-IIb/beta-3 (Homo sapiens); test: Percent inhibition of platelet aggregation at 50 uM; format: functional

Row | SMILES | inhibition [1] [%] | inhibition [2] [%] | inhibition [3] [%]
1 | CC(=O)N[C@@H](CCCCN)C(=O)N1CCCC(C(=O)NCC(=O)O)C1 (some centres undefined) | 24 |  | 
2 | CC(C)(C)OC(=O)NC(CCCCN)C(=O)NC12CC3CC(CC(NCC(=O)O)(C3)C1)C2 (centres undefined) | 44 | 40 | 
3 | CC(=O)N[C@@H](CCCCN)C(=O)N1CCCC(C(=O)NCCC(=O)O)C1 (some centres undefined) |  |  | 86
